Patent EP0418674A1, “Pharmaceutical preparations for enhanced absorption of antibacterial compounds” (priority 1989, dated 1991)

Experiments:
[1] = Enteral absorption in vivo (rats): plasma level of the antibiotic after intraduodenal injection, agar plate bioassay; conditions: rat, 20 mg/kg, enteral (duodenum), Dosis = 5 mg/0,5 ml
Procedure: Weibliche Ratten im Gewicht von etwa 250 g wurden über Nacht fasten gelassen und mit Metofan anästhesiert. Die Antibiotika wurden in Lösung mit oder ohne Resorptionsverstärker nach Bauchschnitt in das Duodenum unterhalb des Magenausgangs injiziert. Für Vergleichszwecke wurde die Lösung alternativ intravenös in die Schwanzvene appliziert. Die Antibiotika wurden in Wasser gelöst, so dass die Lösungen (mit oder ohne Verstärker) 20 mg/kg, etwa 5 mg pro Ratte, enthielten.
Die Konzentration des Antibiotikums im Plasma der Ratte wurde nach verschiedenen Zeitintervallen nach intravenöser oder enteraler Verabreichung bestimmt. Blutproben wurden aus der Schwanzvene des Versuchstiers vor der Verabreichung des Antibiotikums und 5, 10, 20, 40, 60, 120, 240 und 360 Minuten danach entnommen, danach zentrifugiert und das Plasma bis zur Analyse eingefroren.
Antibiotika, die nicht an Plasma gebunden waren, wurden mit Wasser verdünnt und gegen in Wasser hergestellte Standards geprüft. Für gebundene Antibiotika wurde der Einfluss der Proteinbindung eliminiert durch Verdünnen aller Standardlösungen und Proben im gesammelten Plasma. Im Fall von Ceftriaxon und Cefazolin wurde der Effekt der Bindung dadurch berücksichtigt, dass Plasmaproben mit Acetonitril mit einem Verdünnungsfaktor 1:12 deproteinisiert und gegen eine Standardkurve in Wasser verdünnt gemessen wurden. Antibiotikaspiegel wurden wie in Tabelle 1 angegeben auf Agarplatten ermittelt. Tabelle 1
Die Platten wurden bei 37°C über Nacht bebrütet und die Hemmzonen auf die nächsten […] abgelesen. Die Berechnungen wurden mittels einer Autoassaymaschine (Giles Scientific, Inc., New York) vorgenommen. Vergleiche J.V. Bennett et al., Applied Microbiology 14, 170-177 (1966).

[2] = Rectal absorption in vivo (monkeys): plasma level of the antibiotic after suppository; conditions: for Cmax: both sexes, monkey, plasma, read-out: Cmax Bereich
From the text: Für diesen Versuch wurden männliche und weibliche erwachsene Affen (Papio anubis und Papio hamadryas) im Gewicht vom 12-27 kg verwendet. die über Nacht vor der Verabreichung des Antibiotikums fasten gelassen wurden, dann durch i.m.-Injektionen von Ketamin-Hydrochlorid vor der Verabreichung des Antibiotikums sediert wurden. Aus den nachstehend beschriebenen Formulierungen wurden Suppositorien hergestellt die den Tieren verabreicht wurden. Die Rektalöffnungen wurden dann mit Klebeband verschlossen, um ein Herausdrücken der Suppositorienmasse zu vermeiden.
Zur Messung der Resorption des Antibiotikums in den Blutstrom wurden Blutproben aus der Femoralregion vor der Verabreichung des Antibiotikums und 15, 30, 60, 120, 240, 360 und 480 Minuten danach entnommen. Proben wurden zentrifugiert und wie oben beschrieben vermessen. Die Resultate sind in Tabelle 3 zusammengestellt: Tabelle 3

[3] = Oral absorption in vivo (monkeys): plasma concentration of Ceftriaxon after enteric-coated hard gelatin capsules by gavage; set-up: species or system Papio anubis und Papio hamadryas; conditions: Kontrollwert: 300 mg Ceftriaxon-Na in the same capsule without absorption enhancer
From the text: Erwachsene Affen (Papio anubis und Papio hamadryas) im Gewicht von 12-30 kg wurden über Nacht fasten gelassen, dann durch i.m.-Injektion von Ketaminhydrochlorid vor der Verabreichung des Antibiotikums sediert. Jeder Affe erhielt vier Hartgelatinekapseln durch Schlundsonde mit der folgenden Zusammensetzung:
Die Kapseln waren mit einem Ueberzug von Polyvinylacetatphthalat (etwa 8% des Kapselgewichtes) versehen.
Die Plasmakonzentration von Ceftriaxon wurde vor der Verabreichung und 10, 20, 40, 60, 120, 180 und 240 Minuten danach bestimmt.

[4] = 500 mg, rectal suppository, Mit Resorptionsverstärker, Formulierung C (500 mg antibiotic, Labrasol 250 mg, Caprylsäure 200 mg)
[5] = rectal suppository, Mit Resorptionsverstärker, Formulierung D (500 mg antibiotic, Labrasol 250 mg, Caprylsäure 100 mg, Natriumcaprylat 100 mg)
[6] = rectal, Kontrolle ohne Resorptionsverstärker
[7] = rectal suppository, Mit Resorptionsverstärker, Formulierung C (500 mg antibiotic, Labrasol 250 mg, Caprylsäure 200 mg)

Compound	Cmax [2, 4]	Cmax [2, 5]	Cmax [2, 6]	% Bioverfügbarkeit [2, 7]	% Bioverfügbarkeit [2, 5]	% Bioverfügbarkeit [2, 6]	further results
CN[C@H](CC(C)C)C(=O)N[C@H]1C(=O)N[C@@H](CC(N)=O)C(=O)N[C@H]2C(=O)N[C@H]3C(=O)N[C@H](C(=O)N[C@H](C(=O)O)c4cc(O)cc(O)c4-c4cc3ccc4O)[C@H](O)c3ccc(c(Cl)c3)Oc3cc2cc(c3O[C@@H]2O[C@H](CO)[C@@H](O)[C@H](O)[C@H]2O[C@H]2C[C@](C)(N)[C@H](O)[C@H](C)O2)Oc2ccc(cc2Cl)[C@H]1O [Vancomycin]	–	–	–	–	–	–	Cmax ([1]; female, in vivo, Labrasol + Caprylsäure + Natriumcaprylat, weight ratio 4:1:1): 5300 ± 2100 ng/mL; Cmax ([1]; female, in vivo, Labrasol + Caprylsäure, weight ratio 2:1): 8000 ± 2300 ng/mL
CC1(C)S[C@@H]2[C@H](NC(=O)Cc3ccccc3)C(=O)N2[C@H]1C(=O)O [Penicillin G]	–	–	–	–	–	–	Cmax ([1]; in vivo, Labrasol + Caprylsäure + Natriumcaprylat, weight ratio 4:1:1): 2900 ± 1600 ng/mL; Cmax ([1]; in vivo, Labrasol + Caprylsäure, weight ratio 2:1): 7200 ± 700 ng/mL
CO/N=C(\C(=O)N[C@@H]1C(=O)N2C(C(=O)O)=C(CSc3nc(=O)c(=O)[nH]n3C)CS[C@H]12)c1csc(N)n1 [Ceftriaxon]	21600 to 46600 ng/mL	16300 to 38300 ng/mL	300 to 9000 ng/mL	17.3 ± 4.8%	17.1 ± 5.0%	4.3 ± 2.8%	Cmax ([1]; female, plasma, other: intraduodenal injection (enteral), Labrasol + Caprylsäure + Natriumcaprylat, weight ratio 4:1:1): 52200 ± 22500 ng/mL; Cmax ([1]; female, plasma, other: intraduodenal injection (enteral), Labrasol + Caprylsäure, weight ratio 2:1): 57000 ± 10200 ng/mL
CO[C@@]1(NC(=O)C2SC(=C(C(N)=O)C(=O)O)S2)C(=O)N2C(C(=O)O)=C(CSc3nnnn3C)CS[C@@H]21 (some centres unmarked) [Cefotetan]	4300 to 21100 ng/mL	2500 to 61500 ng/mL	2400 to 10100 ng/mL	11.4 ± 7.4%	24.1 ± 12.8%	4.9 ± 3.1%	Cmax Bereich ([2]; rectal, Kontrolle ohne Resorptionsverstärker, listed as Cefotetran): 3400 to 10100 ng/mL
CO/N=C(\C(=O)N[C@@H]1C(=O)N2C(C(=O)O)=C(CSc3nc(=O)c(=O)[nH]n3C)CS[C@H]12)c1csc(N)n1 [Ceftriaxon-Na, Ceftriaxon-Natrium]	–	–	–	–	–	–	Bioverfügbarkeit [3]: 0%
